The record followed here is patent US10961222B2, “Chemical compound of isocitrate dehydrogenase inhibitor, and application thereof” (NANJING SANHOME PHARMACEUTICAL CO., LTD., priority 2016, dated 2021).

For orientation: IC50 means the midpoint of a concentration-inhibition curve.

Assay [1] concerns the target T1, U87-MG cell line of overexpressed mutant IDH2 (R140Q) (Homo sapiens, UniProt P48735, R140Q).
T1 construct: expressed in transfected cells
T1 sequence (P48735 40-452 R140Q): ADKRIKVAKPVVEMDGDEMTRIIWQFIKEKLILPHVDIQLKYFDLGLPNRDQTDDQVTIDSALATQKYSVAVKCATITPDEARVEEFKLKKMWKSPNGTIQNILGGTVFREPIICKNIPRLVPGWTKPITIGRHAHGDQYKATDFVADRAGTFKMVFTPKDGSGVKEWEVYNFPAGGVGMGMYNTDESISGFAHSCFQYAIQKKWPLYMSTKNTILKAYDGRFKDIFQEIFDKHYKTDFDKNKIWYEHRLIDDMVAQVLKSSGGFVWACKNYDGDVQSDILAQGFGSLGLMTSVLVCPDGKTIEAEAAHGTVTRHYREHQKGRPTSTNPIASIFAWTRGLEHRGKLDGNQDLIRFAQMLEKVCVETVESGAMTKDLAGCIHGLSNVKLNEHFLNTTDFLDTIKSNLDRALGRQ
The experiment in a line: Cell activity in vitro: 2-HG in culture supernatant of U87-MG (IDH2-R140Q) cells by LC-MS/MS. The format is cell-based. Conditions: U87-MG (IDH2-R140Q) cells, 72 hours, 2-HG in supernatant; read-out: IC50 (2-HG remaining compared to untreated). As to the method:
1.2 Cells: human glioblastoma cell line U87-MG, purchased from the American Type Culture Collection (ATCC);
Cell recovery: U87-MG (IDH2-R140Q) cells and U87-MG cells were put into a 37° C. water bath, then transferred to 15 mL of pre-warmed medium, centrifuged at 1000 rpm for 5 minutes, and the medium was discarded. The cells were resuspended in 15 mL of fresh medium, transferred to a T75 flask and cultured in a 37° C. incubator with 5% CO2. After 24 hours, the medium was changed to fresh medium.
Cell passage: The above-mentioned recovered cells were transferred to a 50 mL sterile centrifuge tube, centrifuged at 1000 rpm for 5 minutes, and the medium was discarded. The cells were resuspended evenly and counted. The cell density was adjusted appropriately in a 15 mL fresh medium, and then added to T75 culture flask. The culture flask was incubated in an incubator with 5% CO2 at 37° C.
After cells grown to a relatively high density in the culture dish, the cells were trypsinized, resuspended in medium (MEM+10% FBS), and counted. After adjusting the cell concentration, the resuspended cells were seeded in a 96-well plate at 5×10^3 cells per well. After inoculation, the cells were cultured for 24 hours until the cells adhered. The medium were sucked out, and the medium containing gradient concentration of compound was added, 100 μL per well. The cells were further cultured for 72 hours. The s 20 μL of upernatant was taken and put into a 2 mL 96-well sample-processing plate. 480 μL of dilution solution was added and shaken for mixing, and then centrifuged at 4500 rpm for 5 minutes. 200 μL of supernatant was transferred for LC-MS/MS injection analysis.
Column: Shim-pack XR-ODS 30L*2.0; mobile phase: acetonitrile-0.2% ammonia, 5 mM ammonium acetate aqueous solution; column temperature: 30° C.; flow rate: 0.4 mL/min; gradient elution conditions are as follows: […]
Atmospheric […] chemical ionization (APCI) was used. Source parameters was set as follows: IonSpray Voltage/IS-4500V; auxiliary gas 1 (Ion Source Gas 1/GS 1, N2), 55Arb; auxiliary gas 2 (Ion Source Gas 2, N2), 55Arb; auxiliary gas heating temperature (Temperature/TEM), 500° C.; curtain gas/CUR, 25Arb; collision gas/CAD, N2, 8 Pa.
Multi-ion reaction monitoring (MRM) in negative ion mode (Negative) was used. […] The internal standard (IS) MRM parameters: parent ion (Q 1 Mass), 178.0 Da; daughter ion (Q3 Mass), 149.0 Da; Decluster Potential (DP), −51V; collision voltage (Collision Energy/CE), −17 eV
By determining the 2-HG content in the cell culture supernatant of each well using LC-MS/MS, the mutant enzyme activity (2-HG remaining compared to untreated %) was calculated. The calculation formula: 2-HG remaining compared to untreated %=(Measured 2-HG level—U87-MG control 2-HG level)/(Untreated 2-HG level—U87-MG control 2-HG level)×100. […] Data were processed by GraphPad Prism v5.0 software and fitted to obtain IC50.

Assay [2] deals with U87-MG (IDH2-R140Q) subcutaneous xenograft tumor. Put plainly: Subcutaneous xenograft tumor caused by U87-MG (IDH2-R140Q) mutant cells in vivo: intratumor 2-HG. Conditions: for Intratumor 2-HG(%) after 10 days of administration: intragastric, mean, relative to U87-MG (IDH2-R140Q) control group; for ability of lowering 2-HG level compared with positive compound AG-221: U87-MG (IDH2-R140Q) subcutaneous xenograft model. Set-up: species or system BALB/c nude mice. The text has this:
1.2 Animals: BALB/c nude mice, 6-7 weeks old, female, 18-22 g, purchased from Nanjing Jinlaichang Company.
U87-MG (IDH2-R140Q) cells and U87-MG cells (wild type) were expanded, and cells in logarithmic growth phase were used for tumor inoculation in vivo. 16 mice were inoculated subcutaneously into the right lower back of the body at an amount of 2×10^6 cells/mouse (the volume ratio of cell suspension to Matrigel was 1:0.8).
The non-mutation control group was nude mice inoculated with U87-MG cells, and the test compound groups and vehicle control group were nude mice inoculated with U87-MG (IDH2-R140Q) cells.
Each group was intragastrically administered with a corresponding concentration of the compound solution, the administration volume was 100 μL/10 g body weight, and the control group was administered the same volume of blank vehicle.
After 10 days of administration, the mice were sacrificed. The tumors were exfoliated, homogenized, and the 2-HG content in the tumor was examined.
The 2-HG concentration in the homogenate of each animal tumor in each group was determined by LC-MS/MS. The percentage (2-HG %) was calculated; the calculation formula is as follows 2-HG %=(2-HG concentration of administration group tumor−2-HG concentration of U87-MG control group tumor)/(2-HG concentration of U87−MG(IDH2-R140Q) control group tumor−2-HG concentration of U87-MG control group tumor)×100%.

Assay [3] has as its target T2, IDH2-R140Q mutant enzyme (Homo sapiens, UniProt P48735, R140Q).
T2 construct: purchased BPS 71100-1
T2 sequence (P48735 40-452 R140Q): T1 sequence (P48735 40-452 R140Q)
The experiment in a line: Inhibitory activity of compounds on IDH2-R140Q enzyme in vitro (diaphorase/resazurin fluorescence). The format is biochemical. Conditions: IDH2-R140Q, pre-incubated 16 h with enzyme and NADPH, reaction 1 h with α-ketoglutarate; read-out: R140Q IC50. As to the method: Instrument: SpectraMax M3 Multi-Mode Microplate Reader, purchased from Molecular Devices.
In a 96-well plate, 40 μL of reaction buffer containing 2× enzyme (IDH2-WT or IDH2-R140Q) and cofactor (NADP or NADPH) was added to each well of the compound group and the DMSO control group, and 40 μL of reaction buffer containing 2× cofactor (NADP or NADPH) was added to each well of the enzyme-free control group.
20 μL of reaction buffer containing 4× compound to be tested was added to each well of the compound group. The compound was pre-formulated into 200× mother liquor with 100% DMSO; in the final reaction system, the concentration of DMSO was 0.5%. 20 μL of reaction buffer containing DMSO was added to each well of the DMSO control group; in the final reaction system, the concentration of DMSO was 0.5%.
The compound was mixed well with the enzyme and cofactor, and pre-incubated at room temperature for 16 h;
20 μL of reaction buffer containing 4× reaction substrate was added to each well. After mixed uniformly, the mixture was reacted at room temperature for 1 h.
3× termination and detection solution (it was prepared with reaction buffer, the final concentration of Diaphorase was 0.015 mg/mL, and the final concentration of Resazurin was 0.03 mM) was prepared. 40 μL of 3× termination and detection solution was added to each well of the enzyme reaction system. After mixed uniformly, the mixture was incubated at room temperature for 10 min;
Fluorescence values of two wells were obtained and averaged and the activity rate (Activity %) was calculated. The calculation formula: Activity %=(Measured data−Subtract background)/(DMSO Control−Subtract background)×100, wherein “Measured data” is fluorescence value of the compound in the pre-incubated wells, “Subtract background” is the fluorescence value of the enzyme-free control wells, and “DMSO Control” is the fluorescence value in the DMSO pre-incubated wells. Data was processed by GraphPad Prism v5.0 software and fitted to obtain IC50.
(In general: Alamar Blue is a resazurin reagent that responds to reducing activity.)

Regarding `FC1(F)CCN(c2nc(Nc3ccnc(C(F)(F)F)c3)nc(-c3cccc(C(F)(F)F)n3)n2)CC1` [Example 1, 4-(4,4-Difluoropiperidin-1-yl)-6-(6-(trifluoromethyl)pyridin-2-yl)-N-(2-(trifluoromethyl)pyridin-4-yl)-1,3,5-triazin-2-amine], the IC50 in assay [1] came out at 15 nM; in assay [3], 11 nM. Besides, in assay [2] (25 mg/kg), the “Intratumor 2-HG(%) after 10 days of administration” value (shortened to “Intratumor 2-HG(%) after 10 days”) was found to be 22%.

With `FC1(F)CCCN(c2nc(Nc3ccnc(C(F)(F)F)c3)nc(-c3cccc(C(F)(F)F)n3)n2)C1` [Example 2, 4-(3,3-Difluoropiperidin-1-yl)-6-(6-(trifluoromethyl)pyridin-2-yl)-N-(2-(trifluoromethyl)pyridin-4-yl)-1,3,5-triazin-2-amine], the IC50 in assay [1] is 27 nM; in assay [3] it was 23 nM. The “Intratumor 2-HG(%) after 10 days” value in assay [2] (12.5 mg/kg) was 14%.

For `OC1CCCN(c2nc(Nc3ccnc(C(F)(F)F)c3)nc(-c3cccc(C(F)(F)F)n3)n2)C1` (stereo not shown) [Example 3, 4-(3-Hydroxypiperidin-1-yl)-6-(6-(trifluoromethyl)pyridin-2-yl)-N-(2-(trifluoromethyl)pyridin-4-yl)-1,3,5-triazin-2-amine], the IC50 is 24 nM in assay [1] and 22 nM in assay [3]. In assay [2] (12.5 mg/kg), the “Intratumor 2-HG(%) after 10 days” value stood at 22%.

For `O[C@H]1CN(c2nc(Nc3ccnc(C(F)(F)F)c3)nc(-c3cccc(C(F)(F)F)n3)n2)C[C@@H]1F` [Example 23, 4-((3S,4S)-3-hydroxy-4-fluoropyrrolidin-1-yl)-6-(6-(trifluoromethyl)pyridin-2-yl)-N-(2-(trifluoromethyl)pyridin-4-yl)-1,3,5-triazin-2-amine], the “Intratumor 2-HG(%) after 10 days” value in assay [2] (6.25 mg/kg) turned out to be 67%. The IC50 in assay [3] was 30 nM.

Take `OC1(C(F)(F)F)CN(c2nc(Nc3ccnc(C(F)(F)F)c3)nc(-c3cccc(C(F)(F)F)n3)n2)C1` [Example 34]: the IC50 in assay [1] was 17.1 nM; in assay [3], 14.1 nM. Also, the “Intratumor 2-HG(%) after 10 days” value in assay [2] (12.5 mg/kg) is on record as 24%.

As for `FC(F)(F)c1cc(Nc2nc(OCC(F)(F)C(F)(F)F)nc(-c3cccc(C(F)(F)F)n3)n2)ccn1` [Example 45, 4-(2,2,3,3,3-pentafluoropropoxy)-6-(6-(trifluoromethyl)pyridin-2-yl)-N-(2-(trifluoromethyl)pyridin-4-yl)-1,3,5-triazin-2-amine], the IC50 in assay [1] was determined as 10.2 nM; in assay [3] it was 6.3 nM. Moreover, the “Intratumor 2-HG(%) after 10 days” value in assay [2] (6.25 mg/kg) came to 17%. Besides, in assay [2], the “ability of lowering 2-HG level compared with positive compound AG-221” value is given as “substantially superior”.

As for `N#C[C@H]1CCN(c2nc(Nc3ccnc(C(F)(F)F)c3)nc(-c3cccc(C(F)(F)F)n3)n2)C1` [Example 51, 4-((S)-3-cyanopyrrolidin-1-yl)-6-(6-(trifluoromethyl)pyridin-2-yl)-N-(2-(trifluoromethyl)pyridin-4-yl)-1,3,5-triazin-2-amine], the “Intratumor 2-HG(%) after 10 days” value in assay [2] (6.25 mg/kg) was 38%. The “ability of lowering 2-HG level compared with positive compound AG-221” value in assay [2] is recorded as “substantially superior”. Moreover, in assay [3], the IC50 was determined as 18 nM.

`FC(F)(F)c1cc(Nc2nc(-c3cccc(C(F)(F)F)n3)nc(N3CC(F)(F)C(F)(F)C3)n2)ccn1` [Example 55, 4-(3,3,4,4-Tetrafluoropyrrolidin-1-yl)-6-(6-(trifluoromethyl)pyridin-2-yl)-N-(2-(trifluoromethyl)pyridin-4-yl)-1,3,5-triazin-2-amine]: the IC50 in assay [1] came out at 15 nM; in assay [3], 10.1 nM. Moreover, the “Intratumor 2-HG(%) after 10 days” value in assay [2] (6.25 mg/kg) was 1%. Also, the “ability of lowering 2-HG level compared with positive compound AG-221” value in assay [2] is “substantially superior”.
